For one compound, tumor growth response results are on record in PMC4209961 (Journal of nuclear medicine : official publication, Society …, 2013).

The test system of the assay is U87MG tumors. As to the kind of experiment: Tumor growth. The assay is classed as in vivo, athymic nude mice. The following applies: two doses of doxorubicin 5 mg/kg/dose two days apart, tail vein; at day 5 after the treatment started, P < 0.05.

As to `COc1cccc2c1C(=O)c1c(O)c3c(c(O)c1C2=O)C[C@@](O)(C(=O)CO)C[C@@H]3O[C@H]1C[C@H](N)[C@H](O)[C@H](C)O1` [doxorubicin], the tumor growth response result is reported as “significant growth inhibition”.
